Source: patent US20240108610A1, “RECTAL ADMINISTRATION OF ROFLUMILAST FOR THE TREATMENT OF CROHN'S DISEASE” (King Abdulaziz University, priority 2022, published 2024)

Legend:
KI-67 = KI-67 immunostaining of colonic sections; type: in vivo, rat
Experimental: Chronic colitis was induced by weekly rectal injections of increasing doses of TNBS over 6 weeks (15, 30, 45, 60, 60, and 60 mg from day 0 to day 35), as previously described (4,12). Briefly, after food deprivation for 24 h, rats were anesthetized with an intraperitoneal injection of 1% isoflurane. TNBS was dissolved in ethanol (50%) and instilled into the colon using a cannula (0.25 mL), and then the rats were held upside down for 3 min to prevent escape of the intracolonic TNBS. Roflumilast was dissolved in dimethyl sulfoxide and diluted in 0.5% carboxymethyl cellulose sodium to a final concentration of 5.0 mg·kg^−1·day^−1 as previously described (13). Five groups of rats (n=8) were established: normal control (NC group), TNBS-treated (TNBS group, positive control), and three TNBS-treated groups that received oral sulfasalazine (SS group, 500 mg/kg) (14), oral roflumilast (by gastric gavage, OR group, 5 mg/kg), or rectal roflumilast (RR group, 5 mg/kg). Treatments were administered once daily in a volume of 200 μL for 15 days starting 48 h after the induction of colitis (from day 37) (15), and the control rats received equal amounts of vehicle. At the end of the treatment period, the rats were evaluated with the colitis activity score. To detect the effects of the treatments on systemic inflammatory processes, blood was collected for measurements of the proinflammatory mediators TNF-α, IL-2, and IL-6. At the end of the 15-day treatment period, the rats were sacrificed by cervical dislocation, and the colon was isolated, cleaned of feces, and measured for weight and length. Colonic myeloperoxidase (MPO) activity and glutathione (GSH) and malonaldehyde (MDA) levels were measured. The colon was examined macroscopically for gross changes and microscopically in sections stained with hematoxylin and eosin (H&E), Masson trichrome, and Periodic Acid Schiff (PAS) stains as well as KI-67 and TNF-α immunostaining. […] This primary antibody was detected using avidin-biotin peroxidase detection solution (Dako), and the signal was visualized using diaminobenzidine. […]

IL-6 = assay: Serum IL-6 ELISA in TNBS-induced colitis; type: in vivo, rat; settings: means±SE, n = 8
Experimental: Chronic colitis was induced by weekly rectal injections of increasing doses of TNBS over 6 weeks (15, 30, 45, 60, 60, and 60 mg from day 0 to day 35), as previously described (4,12). Briefly, after food deprivation for 24 h, rats were anesthetized with an intraperitoneal injection of 1% isoflurane. TNBS was dissolved in ethanol (50%) and instilled into the colon using a cannula (0.25 mL), and then the rats were held upside down for 3 min to prevent escape of the intracolonic TNBS. Roflumilast was dissolved in dimethyl sulfoxide and diluted in 0.5% carboxymethyl cellulose sodium to a final concentration of 5.0 mg·kg^−1·day^−1 as previously described (13). Five groups of rats (n=8) were established: normal control (NC group), TNBS-treated (TNBS group, positive control), and three TNBS-treated groups that received oral sulfasalazine (SS group, 500 mg/kg) (14), oral roflumilast (by gastric gavage, OR group, 5 mg/kg), or rectal roflumilast (RR group, 5 mg/kg). Treatments were administered once daily in a volume of 200 μL for 15 days starting 48 h after the induction of colitis (from day 37) (15), and the control rats received equal amounts of vehicle. At the end of the treatment period, the rats were evaluated with the colitis activity score. To detect the effects of the treatments on systemic inflammatory processes, blood was collected for measurements of the proinflammatory mediators TNF-α, IL-2, and IL-6. At the end of the 15-day treatment period, the rats were sacrificed by cervical dislocation, and the colon was isolated, cleaned of feces, and measured for weight and length. Colonic myeloperoxidase (MPO) activity and glutathione (GSH) and malonaldehyde (MDA) levels were measured. The colon was examined macroscopically for gross changes and microscopically in sections stained with hematoxylin and eosin (H&E), Masson trichrome, and Periodic Acid Schiff (PAS) stains as well as KI-67 and TNF-α immunostaining. Blood was collected through cardiac puncture. The serum was obtained and stored at −80° C. until analysis. […]

[1] = oral, once daily for 15 days, sulfasalazine 500 mg/kg, roflumilast 5 mg/kg
[2] = rectal, 5 mg/kg once daily for 15 days
[3] = oral, once daily for 15 days, SS 500 mg/kg, OR 5 mg/kg

Row | SMILES | KI-67 immunoexpression in the mucosa (KI-67; [1]) | KI-67 immunoexpression in the mucosa (KI-67; [2]) | serum level of IL-6 (IL-6; [3]) | serum level of IL-6 (IL-6; [2])
1 | O=C(Nc1c(Cl)cncc1Cl)c1ccc(OC(F)F)c(OCC2CC2)c1 [roflumilast] | mildly positive reactions | very mild positive reactions | 21.85 ± 1.00^j, k, l pg/mL | 28.93 ± 0.50^j, k pg/mL
2 | O=C(O)c1cc(/N=N/c2ccc(S(=O)(=O)Nc3ccccn3)cc2)ccc1O [sulfasalazine] | moderately positive reactions |  | 16.14 ± 1.13^k, m pg/mL | 
